Earlier results on 1 molecule are cited in US20250090693A1, “BIOCOMPATIBLE COMPOSITION FOR LABELING TARGET LESION, AND PREPARATION METHOD THEREFOR” (NATIONAL CANCER CENTER, priority 2022, published 2025).

Structures are written as SMILES.

For the molecule `CC1(C)C(/C=C/C=C/C=C/C=C2\N(CCCCS(=O)(=O)O)c3ccc4ccccc4c3C2(C)C)=[N+](CCCCS(=O)(=O)[O-])c2ccc3ccccc3c21` [indocyanine green (ICG), indocyanine green], the clinical safety entry (18 breast cancer patients (T. Kitai, et al., Breast Cancer, 12:211-215, 2005)) was “safely used clinically”. For the same molecule, the “time after injection until decomposed and disappearing or excreted through urine and feces” value (injected into the human body) is “about an hour”.
